In patent publication US20120022143A1, “RNA Interference Mediated Inhibition of the Thymic Stromal Lymphopoietin (TSLP) Gene Expression Using Short Interfering Nucliec Acid (siNA)” (Merck Sharp & Dohme Corp, priority 2009, published 2012):
[invAb] = inverted abasic unit; d = 2'-deoxy (DNA); m = 2'-O-methyl; r = 2'-OH (RNA); f = 2'-fluoro

What was measured:
[1] = test system: TSLP mRNA; assay: Dose response curves of TSLP mRNA knock-down in NHLF cells; assay type: cell-based; settings: human NHLF cells, mean ± s.d.; for IC50: TSLP mRNA knock-down, 12 concentrations from 0.083 fM to 30 nM; for Maximum % KD in DRC: 12 concentrations of siNA from 0.083 fM to 30 nM
Description: NHLF (human; Lonza cat# CC-2512): Cells were cultured at 37° C. in the presence of 5% CO2 and grown Fibroblast Basal Medium (Lonza cat# CC-3β2) supplemented growth factors (provided with the kit) and 100 μg/mL of streptomycin and 100 U/mL penicillin.
Dose response curves were carried out in a similar fashion in 96-well plates, while maintaining a constant amount of RNAiMax in each transfection.
RNA was extracted from a 96-well plate using the TaqMan® Gene Expression Cells-to-CT™ Kit (Cat# 4399002) with a modified protocol. Briefly, a 60 uL (1 plate) or 110 uL (2 plates) of the Lysis Solution with DNase I was dispensed into each well of the Lysis Buffer Plate (twin.tec full skirt plate). The lysis buffer and stop plates were stored at 4° C. until the cells were washed.
Each well of the reverse transcription plate required 10 uL of 2× reverse transcriptase Buffer, luL of 20× reverse transcription enzyme and 2 uL of nuclease-free water. The reverse transcription master mix was prepared by mixing 2× reverse transcription buffer, 20× reverse transcription enzyme mix, and nuclease-free water. 13 uL of the reverse transcription master mix was dispensed into each well of the reverse transcription plate (semi-skirted). A separate reverse transcription plate was prepared for each cell plate. The plate was loaded onto a Biomek NX or Biomek FX Dual-96 and the Biomek method was run. The program is programmed to automatically added 7 uL of lysate from the cell lysis procedure described above into each well of the reverse transcription plate. The plate is sealed and spun on a centrifuge (1000 rpm for 30 seconds) to settle the contents to the bottom of the reverse transcription plate. The plate is placed in a thermocycler at 37° C. for 60 min, 95° C. for 5 min, and 4° C. until the plate is removed from the thermocycler. Upon removal, if not used immediately, the plate was frozen at −20° C.
A series of probes and primers were used to detect the various mRNA transcripts of the genes of TSLP, IL-8 and GAPDH in human cell lines. All the Taqman probes and primers for the experiments here-in described were supplied as pre-validated sets by Applied Biosystems, Inc. (see Table 2). The assays were performed on an ABI 7900 instrument, according to the manufacturer's instructions.
A TaqMan Gene Expression Master Mix (provided in the Cells-to-CT™, Applied Biosystems, Cat #4399002) was used. The PCR reactions were carried out at 50° C. for 2 min, 95° C. for 20 min followed by 40 cycles at 95° C. for 15 secs and 60° C. for 1 min.
The expression level of the gene of interest and % knock-down was calculated using Comparative Ct method: […]
All calculations of IC50s were performed using SigmaPlot 10.0 software. The data were analyzed using the sigmoidal dose-response (variable slope) equation for simple ligand binding. In all of the calculations of the % knock-down, the calculation was made relative to the normalized level of expression of the gene of interest in the samples treated with the non-targeting control (Ctrl siNA) unless otherwise indicated.
Summary data, as to potency and efficacy for TSLP mRNA knock-down in human cells for certain siNA molecules, is presented in Table 5. Cells for the experiments were treated with 12 concentrations of siNA ranging from 0.083 fM to 30 nM. All of the data is presented as % knockdown of TSLP normalized against the expression of GAPDH mRNA expression level. Then the data was determined as a % knockdown relative to the non-targeting control siNA.

[2] = test system: TSLP protein; assay: TSLP ELISA in IL-1β/TNFα-stimulated NHLF cells; assay type: cell-based, human; settings: relative to UC3 siRNA at matched concentration, siNA range 10 nM-0.00015 nM, concentration of the value not stated, mean ± s.d.
Description: In a 96-well plate, 57,500 NHLFcells/well were seeded in 100 uL of complete growth media and incubated overnight at 37° C. with 5% CO2. The cells were transfected with siNAs using RNAiMax (Invitrogen, Cat#13778-150); final concentration of siNAs is 10 nM-0.00015 nM. The amount of RNAiMax in each well is 0.3 uL. The siNAs were incubated for 6 hours. The medium was replaced with 95 uL of fresh complete growth medium and 5 uL/well of IL-1β/TNFα at 10 ng/ml final concentration was added. The cells were incubated for 24 hours. 95 uL of the medium from each well was collected into a separate 96-well plate. The samples were frozen immediately at −80° C. until ready the assay was ready to be performed.
ELISA was performed using DuoSet ELISA Development System (R&D systems, Cat # DY1398) according to the manufacturer's instructions. A seven point standard curve using 2-fold serial dilution in reagent diluent buffer and a high standard of 1000 pg/ml was used. The samples were not diluted. Absorbance was obtained at […] (LM1) and […] (LM2) and the difference (LM1-LM2) was recorded on a SpectraMax plate reader (Molecular Devices) within 30 minutes of stopping the reaction.
Various siNAs were also evaluated for their potential to knock-down TSLP protein using an ELISA assay. Six siNAs were tested in an TSLP ELISA assay across a range of concentrations of siNAs and the level of reduction of protein was determined relative to treatment of the cells with identical concentrations of the negative universal control siNA (UC3) (see Table 6).

[3] = test system: TSLP mRNA; assay: Initial screening: TSLP mRNA knock-down by RT-PCR (Taqman) after RNAiMax transfection of NHLF cells; assay type: cell-based; settings: 10 nM siNA, human NHLF cells; for % KD TSLP: 24 hrs post-transfection, relative to non-targeting control, normalized to GAPDH, mean ± s.d. from 2 experiments; for % KD TSLP (10 nM): mean ± s.d. (Table 5)
[4] = test system: mTSLP mRNA; assay: Initial screening: mouse TSLP mRNA knock-down by RT-PCR (Taqman) after RNAiMax transfection of NIH 3T3 cells; assay type: cell-based; settings: 10 nM siNA, 24 hrs post-transfection, mean ± s.d., summary from 2 screens

Substance	IC50 [1] [pM]	Maximum % KD in DRC [1] [%]	% Reduction TSLP Protein [2] [%]	% KD TSLP [3] [%]	% KD TSLP (10 nM) [3] [%]	% KD mTSLP NIH3T3 [4] [%]
25446-DC: siNA duplex: sense B cAGAAGAGuuucuuAAcuu TTB (SEQ ID NO: 75), antisense AAGuuAAGAAAcucuucuGUU (SEQ ID NO: 76) (sense CAGAAGAGUUUCUUAACUUTT; antisense AAGUUAAGAAACUCUUCUGUU; sense: DNA at AGT, 2'-fluoro at CU, [invAb] at 5' end, 3' end, backbone not given here; antisense: sugars from the 5' end r3 f2 m6 f7 m3, backbone not given here)	9.1 ± 2.4	85 ± 2	64.7 ± 3.5	84 ± 3.6	84 ± 3.6	−32.1 ± 18.3
25434-DC: siNA duplex: sense B GuGGuAuAuAcAAGuAGAu TTB (SEQ ID NO: 51), antisense AUCuAcuuGuAuAuAccAcUU (SEQ ID NO: 52) (sense GUGGUAUAUACAAGUAGAUTT; antisense AUCUACUUGUAUAUACCACUU; sense: DNA at AGT, 2'-fluoro at CU, [invAb] at 5' end, 3' end, backbone not given here; antisense: sugars from the 5' end rrrfmfffmfmfmfmffmfmm, backbone not given here)	6.7 ± 2.5	79 ± 3	82.1 ± 11.8	85 ± 7.6	85 ± 7.6	12.6 ± 6.5
25450-DC: siNA duplex: sense B AuuuuGuGAAcAcuuuuGA TTB (SEQ ID NO: 83), antisense UCAAAAGuGuucAcAAAAuUU (SEQ ID NO: 84) (sense AUUUUGUGAACACUUUUGATT; antisense UCAAAAGUGUUCACAAAAUUU; sense: DNA at AGT, 2'-fluoro at CU, [invAb] at 5' end, 3' end, backbone not given here; antisense: sugars from the 5' end rrrmmmmfmfffmfmmmmfmm, backbone not given here)	1.5 ± 0.3	75 ± 2	44 ± 27.9	82 ± 9.8	82 ± 9.8	8.8 ± 11
25436-DC: siNA duplex: sense B GccAAGuuuuAAAuAuuAu TTB (SEQ ID NO: 55), antisense AUAAuAuuuAAAAcuuGGcUU (SEQ ID NO: 56) (sense GCCAAGUUUUAAAUAUUAUTT; antisense AUAAUAUUUAAAACUUGGCUU; sense: DNA at AGT, 2'-fluoro at CU, [invAb] at 5' end, 3' end, backbone not given here; antisense: sugars from the 5' end rrrmfmfffmmmmfffmmfmm, backbone not given here)	4.1 ± 1.6	86 ± 3	71.7 ± 20.3	90 ± 5.1	90 ± 5.1	19.3 ± 6.1
25449-DC: siNA duplex: sense B AGAAGAGuuucuuAAcuuA TTB (SEQ ID NO: 81), antisense UAAGuuAAGAAAcucuucuUU (SEQ ID NO: 82) (sense AGAAGAGUUUCUUAACUUATT; antisense UAAGUUAAGAAACUCUUCUUU; sense: sugars from the 5' end d7 f6 d2 f3 d3, [invAb] at 5' end, 3' end, backbone not given here; antisense: sugars from the 5' end rrrmffmmmmmmfffffffmm, backbone not given here)	10.2 ± 3.1	82 ± 1	45 ± 23.2	84 ± 2.1	84 ± 2.1	52.9 ± 11.8
25438-DC: siNA duplex: sense B GAAGcAAuuuGAAAuAAuu TTB (SEQ ID NO: 59), antisense AAUuAuuucAAAuuGcuucUU (SEQ ID NO: 60) (sense GAAGCAAUUUGAAAUAAUUTT; antisense AAUUAUUUCAAAUUGCUUCUU; sense: DNA at AGT, 2'-fluoro at CU, [invAb] at 5' end, 3' end, backbone not given here; antisense: sugars from the 5' end rrrfmffffmmmffmffffmm, backbone not given here)	4.1 ± 1.2	79 ± 4	51.9 ± 14.1	85 ± 6.8	85 ± 6.8	9.8 ± 12.2
